Measurements published in ChEMBL document CHEMBL1201862, “PubChem BioAssay data set” (2004).
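Step 1: Grow cells in 96-well plates. Step 2: Expose to compound for 48 hours at 5 concentrations. Step 3: Interpolate endpoints linearly; if unreached, use highest concentration. GI50 is the concentration that inhibits growth by half.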 Activity calls are given as the source filed them. No stated cut-off is given here; in the data, active = GI50 up to about 1.1 µM and inactive = higher.

Key:
Test in all cases: inhibition of tumour cell growth, NCI panel, 48 h
[1] = test system: CCRF-CEM
[2] = test system: DU-145
[3] = test system: HCC 2998
[4] = test system: HL-60
[5] = test system: HOP-92
[6] = test system: Hs-578T
[7] = test system: MCF7
[8] = test system: Malme-3M
[9] = test system: NCI-H460
[10] = test system: NCI-H522
[11] = test system: OVCAR-5
[12] = test system: RPMI-8226
[13] = test system: RXF 393
[14] = test system: SF-268
[15] = test system: SN12C
[16] = test system: TK-10
[17] = test system: UACC-257
[18] = test system: BT-549

COC(=O)c1cc2c(c3c1CC(Cc1ccccc1)C3=O)CCC2 (configuration not stated)
GI50 [1]: 36.5 µM (inactive) | GI50 [2]: 61.4 µM (inactive) | GI50 [3]: 36.7 µM (inactive) | GI50 [4]: > 100 µM (inactive) | GI50 [5]: 25.1 µM (inactive) | GI50 [6]: 45.9 µM (inactive) | GI50 [7]: 69.7 µM (inactive) | GI50 [8]: 54.1 µM (inactive) | GI50 [9]: 71.1 µM (inactive) | GI50 [10]: 68.4 µM (inactive) | GI50 [11]: > 100 µM (inactive) | GI50 [12]: 59.8 µM (inactive) | GI50 [13]: 90.2 µM (inactive) | GI50 [14]: 91.6 µM (inactive) | GI50 [15]: 78.2 µM (inactive) | GI50 [16]: > 100 µM (inactive) | GI50 [17]: > 100 µM (inactive)

CC(C)(C)C(=O)Nc1c(C=O)ccc2[nH]cnc12
GI50 [18]: > 100 µM (inactive) | GI50 [1]: 33.3 µM (inactive) | GI50 [3]: > 100 µM (inactive) | GI50 [5]: > 100 µM (inactive) | GI50 [7]: 60.1 µM (inactive) | GI50 [9]: > 100 µM (inactive) | GI50 [10]: > 100 µM (inactive) | GI50 [11]: > 100 µM (inactive) | GI50 [12]: 89.9 µM (inactive) | GI50 [13]: > 100 µM (inactive) | GI50 [14]: > 100 µM (inactive) | GI50 [15]: > 100 µM (inactive) | GI50 [16]: > 100 µM (inactive) | GI50 [17]: 91.4 µM (inactive)

COc1ccc(-n2c(=O)c3nc(S)[nH]c3n(-c3ccc(OC)cc3)c2=S)cc1
GI50 [18]: > 100 µM (inactive) | GI50 [1]: > 100 µM (inactive) | GI50 [2]: > 100 µM (inactive) | GI50 [3]: > 100 µM (inactive) | GI50 [4]: > 100 µM (inactive) | GI50 [5]: > 100 µM (inactive) | GI50 [7]: > 100 µM (inactive) | GI50 [9]: > 100 µM (inactive) | GI50 [10]: 57.4 µM (inactive) | GI50 [11]: > 100 µM (inactive) | GI50 [12]: > 100 µM (inactive) | GI50 [13]: > 100 µM (inactive) | GI50 [14]: > 100 µM (inactive) | GI50 [15]: > 100 µM (inactive) | GI50 [16]: > 100 µM (inactive) | GI50 [17]: > 100 µM (inactive)

ClCCN1CCO/C1=N/c1ccc2c(c1)CCCC2
GI50 [1]: 11.3 µM (inactive) | GI50 [2]: 15.7 µM (inactive) | GI50 [3]: 14.1 µM (inactive) | GI50 [4]: 4.25 µM (inactive) | GI50 [5]: 11.2 µM (inactive) | GI50 [6]: 13.9 µM (inactive) | GI50 [8]: 7.19 µM (inactive) | GI50 [9]: 18.8 µM (inactive) | GI50 [10]: 10.8 µM (inactive) | GI50 [11]: 17.3 µM (inactive) | GI50 [12]: 4.76 µM (inactive) | GI50 [13]: 8.39 µM (inactive) | GI50 [14]: 14.7 µM (inactive) | GI50 [15]: 12.6 µM (inactive) | GI50 [17]: 3.82 µM (inactive)

CC(=O)O[C@H]1C(=O)[C@@]2(C)C(C(OC(=O)c3ccccc3)[C@]3(O)CC(OC(=O)C(O)C(NC(=O)c4cccc(Cl)c4)c4ccccc4)C(C)=C1C3(C)C)[C@]1(OC(C)=O)CO[C@@H]1C[C@@H]2O (some centres not stated)
GI50 [18]: 6.58 µM (inactive) | GI50 [1]: 0.262 µM (active) | GI50 [2]: 0.546 µM (active) | GI50 [3]: 0.0664 µM (active) | GI50 [4]: 0.148 µM (active) | GI50 [5]: > 10 µM (inactive) | GI50 [7]: 0.344 µM (active) | GI50 [8]: 2.75 µM (inactive) | GI50 [9]: 0.419 µM (active) | GI50 [10]: 0.912 µM (active) | GI50 [11]: 1.1 µM (active) | GI50 [12]: 0.405 µM (active) | GI50 [14]: 0.268 µM (active) | GI50 [15]: 0.628 µM (active) | GI50 [16]: 2.51 µM (inactive) | GI50 [17]: 2.09 µM (inactive)

Cc1cccc2c1CC1(C2)Cc2c(C)cccc2C1=O (configuration not stated)
GI50 [1]: 21.3 µM (inactive) | GI50 [2]: 18.8 µM (inactive) | GI50 [3]: 26.1 µM (inactive) | GI50 [4]: 26.7 µM (inactive) | GI50 [5]: 16.6 µM (inactive) | GI50 [6]: 37.6 µM (inactive) | GI50 [7]: 27.2 µM (inactive) | GI50 [8]: 22.7 µM (inactive) | GI50 [9]: 22.7 µM (inactive) | GI50 [10]: 17.8 µM (inactive) | GI50 [11]: 28.7 µM (inactive) | GI50 [12]: 14.8 µM (inactive) | GI50 [13]: 15.6 µM (inactive) | GI50 [14]: 26.7 µM (inactive) | GI50 [15]: 23.2 µM (inactive) | GI50 [16]: 23.6 µM (inactive) | GI50 [17]: 23 µM (inactive)

COc1cc(C(=O)Oc2c(C#N)sc3c2c(=O)n(-c2ccccc2)c(=S)n3-c2ccccc2)cc(OC)c1OC
GI50 [1]: 4.72 µM (inactive) | GI50 [2]: 19.8 µM (inactive) | GI50 [3]: 19.6 µM (inactive) | GI50 [4]: 18.8 µM (inactive) | GI50 [5]: 14.6 µM (inactive) | GI50 [6]: 8.26 µM (inactive) | GI50 [7]: 22.9 µM (inactive) | GI50 [8]: 9.14 µM (inactive) | GI50 [9]: 21.9 µM (inactive) | GI50 [10]: 0.361 µM (active) | GI50 [11]: 17.6 µM (inactive) | GI50 [12]: 9.08 µM (inactive) | GI50 [13]: 8.99 µM (inactive) | GI50 [14]: 14.3 µM (inactive) | GI50 [15]: 13.8 µM (inactive) | GI50 [16]: 27.7 µM (inactive) | GI50 [17]: 35.2 µM (inactive)

NC(=O)C(=O)C(c1ccccc1)S(=O)(=O)Cc1ccccc1 (configuration not stated)
GI50 [18]: > 100 µM (inactive) | GI50 [1]: > 100 µM (inactive) | GI50 [2]: > 100 µM (inactive) | GI50 [3]: > 100 µM (inactive) | GI50 [5]: > 100 µM (inactive) | GI50 [7]: > 100 µM (inactive) | GI50 [9]: > 100 µM (inactive) | GI50 [10]: > 100 µM (inactive) | GI50 [11]: > 100 µM (inactive) | GI50 [12]: > 100 µM (inactive) | GI50 [13]: > 100 µM (inactive) | GI50 [14]: > 100 µM (inactive) | GI50 [15]: > 100 µM (inactive) | GI50 [16]: > 100 µM (inactive) | GI50 [17]: > 100 µM (inactive)

CC(C)(C)C1=C(Br)C(F)(C(C)(C)C)OP1(=O)c1ccccc1 (configuration not stated)
GI50 [2]: 18 µM (inactive) | GI50 [3]: 13.8 µM (inactive) | GI50 [4]: 2.79 µM (inactive) | GI50 [5]: 18.7 µM (inactive) | GI50 [6]: 29.6 µM (inactive) | GI50 [7]: 15.8 µM (inactive) | GI50 [8]: 17.9 µM (inactive) | GI50 [9]: 19.1 µM (inactive) | GI50 [10]: 15.7 µM (inactive) | GI50 [11]: 20.2 µM (inactive) | GI50 [12]: < 0.01 µM (active) | GI50 [13]: 11.1 µM (inactive) | GI50 [14]: 19.6 µM (inactive) | GI50 [15]: 16 µM (inactive) | GI50 [16]: 18.8 µM (inactive) | GI50 [17]: 16.7 µM (inactive)

Cc1cccc(N2CCN(S(=O)(=O)c3ccc(Cl)cc3)C2=N)c1C
GI50 [18]: > 100 µM (inactive) | GI50 [2]: 93.3 µM (inactive) | GI50 [7]: > 100 µM (inactive) | GI50 [11]: > 100 µM (inactive) | GI50 [12]: > 100 µM (inactive) | GI50 [13]: > 100 µM (inactive) | GI50 [14]: > 100 µM (inactive) | GI50 [15]: > 100 µM (inactive) | GI50 [16]: > 100 µM (inactive) | GI50 [17]: > 100 µM (inactive)

CCc1ccc2oc(-c3cc(O)c(-c4nc5cc(CC)ccc5o4)cc3O)nc2c1
GI50 [1]: > 100 µM (inactive) | GI50 [2]: > 100 µM (inactive) | GI50 [3]: > 100 µM (inactive) | GI50 [4]: > 100 µM (inactive) | GI50 [5]: > 100 µM (inactive) | GI50 [6]: > 100 µM (inactive) | GI50 [7]: > 100 µM (inactive) | GI50 [9]: > 100 µM (inactive) | GI50 [11]: > 100 µM (inactive) | GI50 [12]: > 100 µM (inactive) | GI50 [14]: > 100 µM (inactive) | GI50 [15]: > 100 µM (inactive) | GI50 [16]: > 100 µM (inactive)

CN1C(=O)c2ccccc2NC(=O)C12O[C@@H]2c1cccc(O)c1 (some centres not stated)
GI50 [1]: > 100 µM (inactive) | GI50 [2]: > 100 µM (inactive) | GI50 [3]: > 100 µM (inactive) | GI50 [4]: > 100 µM (inactive) | GI50 [5]: > 100 µM (inactive) | GI50 [6]: > 100 µM (inactive) | GI50 [7]: > 100 µM (inactive) | GI50 [8]: > 100 µM (inactive) | GI50 [9]: > 100 µM (inactive) | GI50 [10]: > 100 µM (inactive) | GI50 [11]: 95.9 µM (inactive) | GI50 [12]: > 100 µM (inactive) | GI50 [14]: > 100 µM (inactive) | GI50 [15]: > 100 µM (inactive) | GI50 [16]: > 100 µM (inactive) | GI50 [17]: > 100 µM (inactive)

CS(=O)(=O)O[C@H]1[C@H](O)c2ccccc2[C@@H]1N=[N+]=[N-]
GI50 [18]: > 100 µM (inactive) | GI50 [1]: > 100 µM (inactive) | GI50 [2]: > 100 µM (inactive) | GI50 [3]: > 100 µM (inactive) | GI50 [4]: > 100 µM (inactive) | GI50 [5]: > 100 µM (inactive) | GI50 [7]: > 100 µM (inactive) | GI50 [8]: > 100 µM (inactive) | GI50 [9]: > 100 µM (inactive) | GI50 [10]: > 100 µM (inactive) | GI50 [11]: > 100 µM (inactive) | GI50 [12]: > 100 µM (inactive) | GI50 [13]: > 100 µM (inactive) | GI50 [15]: > 100 µM (inactive) | GI50 [17]: > 100 µM (inactive)
